Experimental data published in PMC9824012, “Exploring Antimicrobial Peptides Efficacy against Fire Blight (Erwinia amylovora)” (Plants, 2022).

System: Erwinia amylovora
Assay: Transmission electron microscopy of treated cells
Format: cell-based, Erwinia amylovora strain PGL Z1
Details: antibiotic control 0.5 mg/mL
Experimental: Aliquots of E. amylovora suspensions were incubated with the KL29 for 15 min at room temperature to investigate peptide antibacterial modes of action (lytic and non-lytic). E. amylovora suspensions treated with 0.5 mg/mL of streptomycin (bacteriostatic antibiotic), and ampicillin (bactericidal antibiotic) were used as controls. Preparations were observed under TEM (FEI MORGAGNI 282D, Hillsboro, OR, USA) by the dip method: the carbon coated copper/rhodium grids were incubated with treated and untreated bacterial suspension for 2 min, and then rinsed with 200 μL of distilled water. Negative staining was obtained by floating the grids on 200 μL of 0.5 % w/v UA-zero EM STAIN (Agar-Scientific Ltd., Stansted, UK) solution and observing them under the EM using an accelerating voltage of 80 kV.

Row | SMILES | TEM morphology of treated E. amylovora cells (in words)
1 | CC1(C)S[C@@H]2[C@H](NC(=O)[C@H](N)c3ccccc3)C(=O)N2[C@H]1C(=O)O [ampicillin] | damaged cell walls and the decomposition of inner structures
2 | [H]/N=C(/N)N[C@H]1[C@H](O)[C@@H](O)[C@H](O[C@@H]2O[C@@H](C)[C@](O)(C=O)[C@H]2O[C@@H]2O[C@@H](CO)[C@H](O)[C@@H](O)[C@@H]2NC)[C@@H](N/C(N)=N\[H])[C@@H]1O [streptomycin] | reduced cell lysis and morphological alterations similar to those treated with KL29 at 250 µM
